Assay: Protein binding
Assay type: in vitro ADME

C[C@H]1N=C(N(C)C)N=C(N)N1 [imeglimin, (6R)—N^2, N^2,6-trimethyl-3,6-dihydro-1,3,5-triazine-2,4-diamine]
protein binding: < 8 % bound
